Data from ChEMBL document CHEMBL1154363, “Heterocyclic 1,7-disubstituted indole sulfonamides are potent and selective human EP3 receptor antagonists” (Bioorg Med Chem Lett, 2009).

Experiments:
Platelet = assay: Inhibition of PGE2/collagen-induced platelet aggregation rat platelets rich plasma; type: functional
[1] = target: T1, Prostaglandin E2 receptor EP3 subtype (Homo sapiens, UniProt P43115); assay: Displacement of [3H]PGE2 from human EP3 receptor
T1 sequence (P43115 whole entry): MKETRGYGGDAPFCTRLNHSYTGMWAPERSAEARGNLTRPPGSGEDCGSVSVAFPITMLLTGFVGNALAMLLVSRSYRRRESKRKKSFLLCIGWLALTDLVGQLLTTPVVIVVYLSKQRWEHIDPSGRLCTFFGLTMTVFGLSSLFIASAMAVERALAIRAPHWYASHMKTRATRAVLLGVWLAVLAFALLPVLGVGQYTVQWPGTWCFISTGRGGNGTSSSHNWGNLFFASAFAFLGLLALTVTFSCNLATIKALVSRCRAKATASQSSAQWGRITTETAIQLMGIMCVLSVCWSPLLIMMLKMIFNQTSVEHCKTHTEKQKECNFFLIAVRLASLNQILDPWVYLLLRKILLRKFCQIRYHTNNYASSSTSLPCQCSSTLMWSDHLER

[2] = Metabolic stability in rat liver microsomes assessed as compound remaining after 30 mins; type: ADME, Microsome; conditions: read-out: Stability
[3] = Metabolic stability in human liver microsomes assessed as compound remaining after 30 mins; type: ADME, Microsome; conditions: read-out: Stability
[4] = target: T2, Prostaglandin E2 receptor EP3 subtype (Homo sapiens) (UniProt P43115); assay: Displacement of [3H]PGE2 from human EP3 receptor in presence of 10% human serum
T2 sequence (whole entry): T1 sequence (P43115 whole entry)

[5] = target: T3, Thromboxane A2 receptor (Homo sapiens) (UniProt P21731); assay: Activity at TP receptor at 1 uM by FLIPR assay
T3 sequence (whole entry): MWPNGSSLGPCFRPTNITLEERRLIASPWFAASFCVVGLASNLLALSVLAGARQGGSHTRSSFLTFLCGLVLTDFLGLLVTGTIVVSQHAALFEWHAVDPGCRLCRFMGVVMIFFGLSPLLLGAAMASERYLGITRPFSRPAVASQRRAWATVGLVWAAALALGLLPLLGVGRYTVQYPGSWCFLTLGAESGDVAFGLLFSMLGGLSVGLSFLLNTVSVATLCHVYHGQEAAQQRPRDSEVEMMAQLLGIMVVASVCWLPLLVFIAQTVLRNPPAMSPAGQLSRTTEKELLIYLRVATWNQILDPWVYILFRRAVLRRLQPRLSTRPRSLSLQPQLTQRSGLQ

[6] = target: T4, Prostaglandin F2-alpha receptor (Homo sapiens, UniProt P43088); assay: Activity at FP receptor at 1 uM by FLIPR assay
T4 sequence (P43088 whole entry): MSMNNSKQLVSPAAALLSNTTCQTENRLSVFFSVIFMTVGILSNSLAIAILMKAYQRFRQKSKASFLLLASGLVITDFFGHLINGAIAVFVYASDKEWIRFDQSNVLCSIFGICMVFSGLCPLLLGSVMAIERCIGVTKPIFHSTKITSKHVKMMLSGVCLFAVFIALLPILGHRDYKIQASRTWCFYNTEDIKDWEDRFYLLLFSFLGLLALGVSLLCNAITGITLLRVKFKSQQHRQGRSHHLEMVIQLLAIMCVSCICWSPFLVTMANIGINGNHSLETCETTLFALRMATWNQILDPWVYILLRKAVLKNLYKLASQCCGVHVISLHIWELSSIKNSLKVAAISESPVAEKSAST

[7] = target: T4, Prostaglandin F2-alpha receptor; assay: Activity at FP receptor at 0.1 uM by FLIPR assay
[8] = target: T4, Prostaglandin F2-alpha receptor; assay: Activity at FP receptor at 10 uM by FLIPR assay
[9] = target: T3, Thromboxane A2 receptor (Homo sapiens); assay: Activity at TP receptor at 10 uM by FLIPR assay
[10] = target: T5, Prostaglandin E2 receptor EP4 subtype (Homo sapiens, UniProt P35408); assay: Activity at EP4 receptor at 0.1 uM by FLIPR assay
T5 sequence (P35408 whole entry): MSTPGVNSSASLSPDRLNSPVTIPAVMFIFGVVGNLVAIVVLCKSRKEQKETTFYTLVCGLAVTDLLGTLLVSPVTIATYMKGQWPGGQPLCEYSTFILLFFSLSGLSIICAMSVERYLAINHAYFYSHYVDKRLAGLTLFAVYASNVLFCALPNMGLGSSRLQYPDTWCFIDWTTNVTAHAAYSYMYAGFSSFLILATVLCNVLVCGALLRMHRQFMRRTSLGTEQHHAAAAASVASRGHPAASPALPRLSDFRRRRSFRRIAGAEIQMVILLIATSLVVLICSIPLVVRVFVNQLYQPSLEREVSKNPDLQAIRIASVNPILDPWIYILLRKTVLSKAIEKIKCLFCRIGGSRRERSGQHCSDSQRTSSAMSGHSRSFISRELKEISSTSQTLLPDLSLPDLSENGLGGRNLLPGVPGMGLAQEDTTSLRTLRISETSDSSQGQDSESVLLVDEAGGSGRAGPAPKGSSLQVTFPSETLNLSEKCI

[11] = target: T5, Prostaglandin E2 receptor EP4 subtype; assay: Activity at EP4 receptor at 1 uM by FLIPR assay
[12] = Protein binding in plasma by HSA-HPLC method; type: ADME, cell-free; conditions: human, read-out: PB (converted)
[13] = target: T6, Prostaglandin E2 receptor EP1 subtype (Homo sapiens) (UniProt P34995); assay: Activity at EP1 receptor at 1 uM by FLIPR assay
T6 sequence (whole entry): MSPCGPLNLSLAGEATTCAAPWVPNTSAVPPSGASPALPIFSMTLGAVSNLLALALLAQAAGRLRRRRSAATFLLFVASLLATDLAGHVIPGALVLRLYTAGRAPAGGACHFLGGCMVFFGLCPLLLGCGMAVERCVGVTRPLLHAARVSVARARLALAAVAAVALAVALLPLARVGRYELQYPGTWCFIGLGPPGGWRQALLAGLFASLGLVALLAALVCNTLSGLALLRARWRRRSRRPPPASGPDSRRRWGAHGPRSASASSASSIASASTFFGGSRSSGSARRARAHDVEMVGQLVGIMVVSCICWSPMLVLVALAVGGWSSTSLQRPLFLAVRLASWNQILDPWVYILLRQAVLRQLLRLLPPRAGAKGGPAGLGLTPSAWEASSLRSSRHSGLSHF

[14] = target: T6, Prostaglandin E2 receptor EP1 subtype (Homo sapiens); assay: Activity at EP1 receptor at 0.1 uM by FLIPR assay
[15] = target: T5, Prostaglandin E2 receptor EP4 subtype; assay: Activity at EP4 receptor at 10 uM by FLIPR assay
[16] = target: T6, Prostaglandin E2 receptor EP1 subtype (Homo sapiens); assay: Activity at EP1 receptor at 10 uM by FLIPR assay
[17] = target: T3, Thromboxane A2 receptor (Homo sapiens); assay: Activity at TP receptor at 0.1 uM by FLIPR assay

Row | SMILES | IC50 (Platelet) [nM] | IC50 [1] [nM] | remaining at 0.5 h [2] [%] | remaining at 0.5 h [3] [%] | fold change (FC) [4] | Activity [5] [%] | Activity [6] [%] | Activity [7] [%] | Activity [8] [%] | Activity [9] [%] | Activity [10] [%] | Activity [11] [%] | fraction unbound [12] | Activity [13] [%] | Activity [14] [%] | Activity [15] [%] | Activity [16] [%] | Activity [17] [%]
1 | Cc1cn(Cc2ccc(Cl)cc2Cl)c2c(-c3cc(NS(=O)(=O)c4cc(Cl)c(Cl)s4)no3)cc(F)cc12 | 1040 | 5 | 57.8 | 46.8 | 67 | – | – | – | – | – | – | – | – | – | – | – | – | –
2 | Cc1cn(Cc2ccc(Cl)cc2Cl)c2c(-c3nnc(NS(=O)(=O)c4cc(F)c(F)cc4F)o3)cc(F)cc12 | – | 2 | – | – | 22 | 11 | 21 | 5 | 64 | 99 | 9 | 15 | 0.006 | 94 | 25 | 84 | 99 | 3
3 | Cc1cn(Cc2ccc(F)c(F)c2)c2c(-c3cc(NS(=O)(=O)c4ccc(F)c(F)c4)no3)cc(F)cc12 | – | 44 | – | – | 178 | 0 | 16 | 15 | 21 | 17 | 18 | 17 | – | 11 | -9 | 18 | 99 | 3
4 | Cc1cn(Cc2ccc3ccccc3c2)c2c(-c3cc(NS(=O)(=O)c4cc(F)c(F)cc4F)no3)cc(F)cc12 | – | 8 | – | – | 2.3 | -5 | 3 | -3 | 19 | 19 | -17 | -17 | – | 29 | -2 | 9 | 100 | -9
5 | Cc1cn(Cc2ccc3ccccc3c2)c2c(-c3cc(NS(=O)(=O)c4ccc(F)c(F)c4)no3)cc(F)cc12 | – | 1 | 9.9 | – | 14.6 | -2 | 0 | -9 | 6 | 12 | -25 | -17 | – | 9 | -3 | -4 | 62 | 3
6 | Cc1cn(Cc2ccc(Cl)cc2Cl)c2c(-c3nnc(NC(=O)c4ccco4)o3)cc(F)cc12 | – | 363 | – | – | – | – | – | – | – | – | – | – | – | – | – | – | – | –
7 | Cc1cn(Cc2ccc(F)c(F)c2)c2c(-c3cc(NS(=O)(=O)c4cc(Cl)c(Cl)s4)no3)cc(F)cc12 | – | 59 | – | – | 24.2 | -3 | 18 | 8 | 31 | 11 | 9 | 11 | – | -5 | -8 | 18 | 52 | 3
8 | Cc1cn(Cc2ccc(Cl)cc2Cl)c2c(-c3nnc(NS(=O)(=O)c4ccc(F)c(F)c4)o3)cc(F)cc12 | 2710 | 20 | 42.5 | – | 2.4 | 9 | 26 | 22 | 41 | 89 | 13 | 26 | – | 30 | -11 | 32 | 100 | -5
9 | Cc1cn(Cc2ccc3ccccc3c2)c2c(-c3cc(NS(=O)(=O)c4ccc(Cl)c(Cl)c4)no3)cc(F)cc12 | – | 11 | – | – | 4.9 | -8 | -8 | -3 | -6 | -13 | -29 | -15 | – | -7 | 2 | 3 | 16 | 9
10 | Cc1cn(Cc2ccc3ccccc3c2)c2c(-c3cc(NS(=O)(=O)c4cc(Cl)c(Cl)s4)no3)cc(F)cc12 | 3240 | 1 | – | – | 3.6 | -7 | -4 | -7 | 7 | 7 | -9 | -9 | – | 0 | -10 | 10 | 80 | -12
11 | Cc1cn(Cc2ccc(Cl)cc2Cl)c2c(-c3nnc(NS(C)(=O)=O)o3)cc(F)cc12 | – | 2570 | – | – | 199 | – | – | – | – | – | – | – | – | – | – | – | – | –
